Measurements from PMC10539501 (Nature Communications, 2023).
Read-outs that look alike come from different tables or passages of the source. One block for each compound: values may come before it. Starred links: 1 amine or outer side, 2 acyl side, 3 side chain; linkers in the order of their positions; H or OH if unused. Non-standard residues stand in square brackets, D forms with d. Residues, ends and D or L forms follow the SMILES beside them. X1 = CC(C)C[C@H](NC(=S)[C@H](Cc1ccc(O)cc1)N[*:1])C(=O)[*:2]; X9 = O=C([C@@H]1CCCN1C(=S)[C@H](Cc1ccccc1)N[*:1])[*:2]

Assays:
[1] = HDX of amide protons by NMR in CDCl3:CD3OD (8:2)
Description: (§1) As hydrogen bonding and solvation of NH groups play an important role in the permeability of macrocycles, we determined the solvent accessibility of individual amide protons in 10 and 10a–10f by hydrogen-deuterium exchange (HDX) through NMR spectroscopy (Figs. 2a–c).
(§2) Spectra were recorded on a Bruker AV 500 MHz spectrometer at 25 °C.

[2] = Octanol-water distribution coefficient (logD7.4); conditions: octanol-water, pH 7.4; value plotted against PAMPA (Supplementary Fig 12)
in vitro [3] = conditions: human, microsomes
Description: (§3) A stability assessment of the peptides was done in simulated gastric (SGF) and intestinal (SIF) fluids and human liver microsomes. The degradation kinetics of the aliquoted samples at desired time points were analyzed through RP-HPLC.

[4] = assay type: physicochemical
[5] = assay type: physicochemical; remark: listed apart in the source
[6] = rat, in vivo, po, 10 mg/kg
Description: (§4) All animals were housed individually in the animal facility at Anthem Biosciences Pvt. Ltd and were acclimatized for 3 days. All animals were fasted overnight before dosing, whereas access to water was provided ad libitum. Peptides were administered orally and via s.c. route and blood samples were collected at different time points through a jugular vein catheter.

pepsin [7] = target: T1, pepsin (Sus scrofa, UniProt P00791); test: in vitro; conditions: simulated gastric fluid, pH 1.2
Description: as §3

physchem = conditions: pH 7.4
in vitro [8] = conditions: pig, simulated intestinal fluid
in vivo [9] = conditions: male, Wistar, rat
Description: as §4

in vitro [10] = conditions: both, human, plasma
[11] = PAMPA passive permeability; assay type: in vitro ADME;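 further: passive permeability across an artificial membrane in 96-well pre-coated PAMPA plates, which lack transporters and efflux systems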
Description: Encouraged by this, the passive permeability of the analogs was evaluated using an artificial membrane (PAMPA), which measures permeability of compounds in the absence of transporters and efflux systems[32].
96-well BD Corning® pre-coated PAMPA plates were used following the supplier’s protocol, details in Supplementary Information.

[12] = Retention in hydrophobic C18 column by HPLC; conditions: Supplementary Fig 3d, logD7.4 vs tR
in vitro [13] = assay type: in vitro ADME, human
Description: (§5) The Caco-2 cell (HTB-37^TM from ATCC, procured from NCCS, Pune) monolayer was washed and pre-incubated at 37 °C and 5% CO2 for 30 min with HBSS-HEPES buffer containing 1% DMSO prior to experimentation. The assay was performed 21 days post-seeding of cells. TEER values were measured before starting and after the completion of the assay. Acceptor and donor well concentrations of the peptides and controls were assessed through LC-MS/MS.

Caco-2 cells = test: in vitro; assay type: in vitro ADME, human; conditions: Caco-2
Description: as §5

pepsin [14] = target: T1, pepsin; conditions: pH 1.2
Description: as §3

in vitro [15] = conditions: both, human, plasma; remark: listed apart in the source
[16] = HDX of amide protons by NMR in DMSO-d6:D2O (8:2)
Description: as §1, §2

SSTR2 = target: T2, SSTR2 (Homo sapiens, UniProt P30874); test: GloSensor assay, inhibition of forskolin-induced cAMP production; assay type: cell-based
T2 construct: expressed in transfected cells; host or cells: HEK-293T (CRL-3216)

SSTR5 = target: T3, SSTR5 (Homo sapiens, UniProt P35346); test: GloSensor assay, inhibition of forskolin-induced cAMP production; assay type: cell-based
T3 construct: expressed in transfected cells; host or cells: HEK-293T (CRL-3216)
Description: HEK-293T cells (CRL-3216 from ATCC, procured from NCCS, Pune) were co-transfected with human somatostatin receptor subtypes 2 & 5, plasmid cDNA, and cAMP biosensor (pGloSensorTM-22F plasmid; Promega Corp.) using PEImax. Ligand incubation was followed by the addition and incubation of forskolin (FSK) to the plate. Dose-dependent inhibition of forskolin-induced cAMP production by the peptide ligands was measured using a luminescence plate reader. An elaborate description of the assay setup has been provided in Supplementary Information.

in vivo [17] = conditions: male, rat, sc; for half-life: Sprague-Dawley
Description: Subsequently, we selected 13a, 13b, 13d, and 13e for assessing their plasma exposure post single dose subcutaneous injection into male Sprague Dawley rats.
as §4

[18] = system: growth hormone (GH) release; test: In vivo inhibition of growth hormone release (sandwich ELISA); design: species or system rats
Description: In vivo inhibition of GH. Finally, we estimated the in vivo efficacy of 13 and the thioamidated analogs 13b, 13d, and 13e in suppressing the release of growth hormone (GH) post subcutaneous injection at 250 μg/kg dosage (Fig. 7e). 13a was also included as a negative control to assess its effect on GH release. The rats were bled from their orbital sinus, and the plasma GH levels were evaluated through sandwich ELISA. […] This correlates well with the high plasma concentration of 13 at the initial time points and a rapid drop within 2 h of s.c. administration (Fig. 7c). […] In contrast, the inhibitory effect lasts longer in 13b, 13d, and 13e showing a significant reduction in plasma GH levels within 24–48 h (Fig. 7h). […] The rapid drop in plasma concentration of 13 is responsible for its least in vivo efficacy.
Animal housing and acclimatization were done at Central Animal Facility, IISc Bangalore, as mentioned in the previous section, following protocols from the IEAC and CPCSEA. […] Samples were processed as discussed in Supplementary Information, and sandwich ELISA was performed to measure the growth hormone level in blood plasma. For acute toxicity, after peptide injection (s.c.), blood samples were collected on the 14th day for liver and kidney function tests.

SIF = conditions: up to 72 hours
[19] = 20% CD3OD in CDCl3, % remaining after 24 hours
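Wherever Papp A-B avg (second block) is given: Caco-2 monolayers used 21 days after seeding in HBSS-HEPES buffer with 1% DMSO, donor and acceptor levels quantified by LC-MS/MS, TEER checked before and after.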
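Wherever Papp A-B set 1 (second block) is given: Caco-2 monolayers used 21 days after seeding in HBSS-HEPES buffer with 1% DMSO, donor and acceptor levels quantified by LC-MS/MS, TEER checked before and after.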
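Wherever Papp A-B set 2 (second block) is given: Caco-2 monolayers used 21 days after seeding in HBSS-HEPES buffer with 1% DMSO, donor and acceptor levels quantified by LC-MS/MS, TEER checked before and after.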
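Wherever Papp B-A avg (second block) is given: Caco-2 monolayers used 21 days after seeding in HBSS-HEPES buffer with 1% DMSO, donor and acceptor levels quantified by LC-MS/MS, TEER checked before and after.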

T1 sequence (P00791 60-385): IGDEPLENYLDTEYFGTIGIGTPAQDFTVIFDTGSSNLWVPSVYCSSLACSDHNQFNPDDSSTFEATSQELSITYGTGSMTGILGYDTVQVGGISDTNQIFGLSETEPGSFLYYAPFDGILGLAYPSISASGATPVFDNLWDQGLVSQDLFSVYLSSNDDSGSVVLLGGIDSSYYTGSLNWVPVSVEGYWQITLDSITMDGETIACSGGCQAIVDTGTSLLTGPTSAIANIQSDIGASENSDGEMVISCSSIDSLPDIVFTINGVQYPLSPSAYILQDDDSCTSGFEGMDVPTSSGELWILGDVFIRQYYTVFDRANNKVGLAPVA
T2 sequence (P30874 whole entry): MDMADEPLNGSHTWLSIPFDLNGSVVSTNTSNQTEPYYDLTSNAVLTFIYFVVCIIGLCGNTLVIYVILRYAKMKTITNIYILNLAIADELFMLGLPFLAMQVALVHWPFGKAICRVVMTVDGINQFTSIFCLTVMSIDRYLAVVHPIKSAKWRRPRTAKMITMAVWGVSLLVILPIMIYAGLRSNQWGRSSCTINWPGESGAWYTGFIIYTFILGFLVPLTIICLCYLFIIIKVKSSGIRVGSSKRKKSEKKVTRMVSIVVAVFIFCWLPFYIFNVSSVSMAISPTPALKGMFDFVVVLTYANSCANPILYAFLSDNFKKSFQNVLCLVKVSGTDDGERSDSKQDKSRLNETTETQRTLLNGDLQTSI
T3 sequence (P35346 whole entry): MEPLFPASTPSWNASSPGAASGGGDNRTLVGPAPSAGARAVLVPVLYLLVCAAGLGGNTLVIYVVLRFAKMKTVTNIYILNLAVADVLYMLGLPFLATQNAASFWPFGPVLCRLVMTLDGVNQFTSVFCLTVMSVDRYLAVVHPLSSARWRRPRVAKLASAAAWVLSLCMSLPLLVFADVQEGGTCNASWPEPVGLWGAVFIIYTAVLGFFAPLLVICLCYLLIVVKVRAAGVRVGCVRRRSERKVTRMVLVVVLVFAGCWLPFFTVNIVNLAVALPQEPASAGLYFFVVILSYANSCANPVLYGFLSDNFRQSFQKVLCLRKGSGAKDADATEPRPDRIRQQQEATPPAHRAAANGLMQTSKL
Description for human liver microsomes: as §3

Compound: C[C@@H](O)[C@@H]1NC(=O)[C@H](CCCCN)NC(=O)[C@@H](Cc2c[nH]c3ccccc23)NC(=O)[C@H](Cc2ccccc2)NC(=O)[C@@H]2CCCN2C(=O)[C@H](Cc2ccccc2)NC1=O [compound 13, cyclo(-D-Trp^1-Lys-Thr-Phe-Pro-Phe^6-)] (cyclo(PF[dW]KTF))
- AUC 0_24 ([18]; growth hormone AUC 0-24 h, mean of n = 3): 504 ng·h/mL
- AUC 0_48 ([18]; growth hormone AUC 0-48 h, mean of n = 3): 1371 ng·h/mL
- AUC 24_48 ([18]; growth hormone AUC 24-48 h, mean of n = 3): 817 ng·h/mL
- inhibition of unstimulated GH release ([18]; rats, 250 μg/kg s.c., plasma GH by sandwich ELISA over 48 h): significant inhibition
- logD heptane ethylene glycol [5]: -1.43
- logD (physchem): -1.23
- half-life (in vitro [8]): 108 min
- fraction unbound (in vitro [10]): 0.24
- IC50 (SSTR2): 16.6 ± 4.2 nM
- Papp ([11]; Pe): 1.34 ×10⁻⁶ cm/s
- t1/2 in human blood plasma: 15 ± 0.9 h
- half-life (in vitro [15]): 840 min
- t1/2 for all HNs (HDX) ([16]; HDX experiment by NMR, solvent not stated at the place (Supplementary Fig. 18)): < 5 min
- Half-lives (min), amide proton D-Trp1 ([16]; Supplementary Fig 18b, HDX of amide proton of D-Trp1, solvent not given): >5 min
- Half-lives (min), amide proton Lys2 ([16]; Supplementary Fig 18b, HDX of amide proton of Lys2, solvent not given): >5 min
- Half-lives (min), amide proton Phe4 ([16]; Supplementary Fig 18b, HDX of amide proton of Phe4, solvent not given): >5 min
- Half-lives (min), amide proton Phe6 ([16]; Supplementary Fig 18b, HDX of amide proton of Phe6, solvent not given): >5 min
- Half-lives (min), amide proton Thr3 ([16]; Supplementary Fig 18b, HDX of amide proton of Thr3, solvent not given): >5 min
- IC50 (SSTR5): 105 ± 24.2 nM
- level at 0.5 h (in vivo [17]; Sprague Dawley): 195 ng/mL
- level at 1 h (in vivo [17]; Sprague Dawley): 128 ng/mL
- level at 2 h (in vivo [17]; Sprague Dawley, 250 ug/kg): 8 ng/mL
- half-life (in vivo [17]): 18 ± 3 min

Compound: cyclo(-D-Trp^1-Lys-Thr-Phe-Pro-Phe^6-)
- cleaved bond (SIF): Lys2-Thr3, major, 1 hour

Compound: cyclo(D-Trp^1-Lys'-Thr-Phe-Pro-Phe^6)
- not cleaved (SIF): prevented the degradation of the macrocycle over 72 h

Compound: cyclo(D-Trp^1-Lys-Thr-Phe-Pro-Phe^6)
- not cleaved (SIF): prevented the degradation of the macrocycle over 72 h

Continued, values first:

- Protein binding set1 (plasma proteins): 100%
- Protein binding set2 (plasma proteins): 95%
- Protein binding set3 (plasma proteins): 100%
- Half-life of D-Leu1 amide proton (HDX) ([1]; 20% CD3OD in CDCl3): 10 min
- Half-life of Leu2 amide proton (HDX) ([1]; 20% CD3OD in CDCl3): 2 min
- Half-life of Leu3 amide proton (HDX) ([1]; 20% CD3OD in CDCl3): > 1440 min
- Half-life of Leu6 amide proton (HDX) ([1]; 20% CD3OD in CDCl3): > 1440 min
- Half-life of Tyr5 amide proton (HDX) ([1]; 20% CD3OD in CDCl3): 188 min
- % intact NH, Leu3 [1, 19]: 66%
- % intact NH, Leu6 [1, 19]: 70%
- logD7.4 [2]: 1.65
- microsomal CLint (in vitro [3]): 56.5 µL/min/mg
- remaining at 5 min (in vitro [3]): 97%
- remaining at 10 min (in vitro [3]): 70%
- remaining at 20 min (in vitro [3]): 55%
- remaining at 0.5 h (in vitro [3]): 47%
- remaining at 0.75 h (in vitro [3]): 37%
- remaining at 1 h (in vitro [3]): 27%
- % solubility [4]: 14%
- logD heptane ethylene glycol [5]: 0.94
- AUClast p.o [6]: 359.5 ng·h/mL
- time over which the peptide is detectable in plasma [6]: ≥ 8 h
- half-life (pepsin [7]): 230 min
- remaining at 5 min (pepsin [7]): 82%
- remaining at 10 min (pepsin [7]): 78%
- remaining at 20 min (pepsin [7]): 73%
- remaining at 0.5 h (pepsin [7]): 66%
- remaining at 1 h (pepsin [7]): 61%
- remaining at 2 h (pepsin [7]): 58%
- remaining at 4 h (pepsin [7]): 49%
- remaining at 8 h (pepsin [7]): 41%
- remaining at 12 h (pepsin [7]): 35%
- remaining at 24 h (pepsin [7]): 24%
- logD (physchem): 1.45
- half-life (in vitro [8]): 241 min
- remaining at 10 min (in vitro [8]): 76.6%
- remaining at 0.5 h (in vitro [8]): 68.3%
- remaining at 1 h (in vitro [8]): 62.8%
- remaining at 2 h (in vitro [8]): 58.3%
- remaining at 4 h (in vitro [8]): 49.7%
- remaining at 8 h (in vitro [8]): 40.9%
- remaining at 12 h (in vitro [8]): 27.5%
- remaining at 24 h (in vitro [8]): 19.9%
- AUC(0-t) (in vivo [9]; iv): 2280 ng·h/mL
- Cmax (in vivo [9]; iv): 2660 ng/mL
- MRT (in vivo [9]; iv): 1.5 h
- Vd (in vivo [9]; iv): 0.7 L/kg
- clearance (in vivo [9]; iv): 7.5 mL/min/kg
- bioavailability (in vivo [9]; po): 1.6%
- AUC(0-t) (in vivo [9]; po, 10 mg/kg): 360 ng·h/mL
- Cmax (in vivo [9]; po, 10 mg/kg): 47.2 ng/mL
- MRT (in vivo [9]; po, 10 mg/kg): 5.9 h
- level at 3 h (in vivo [9]; po, 10 mg/kg): 32.6 ng/mL
- fraction unbound (in vitro [10]): 0.01
- Pe Avg [11]: 7.4e-06 cm/s
- Pe set1 [11]: 7.43e-06 cm/s
- Pe set2 [11]: 6.36e-06 cm/s
- Pe set3 [11]: 8.29e-06 cm/s
- Papp ([11]; Pe Avg): 7.4 ×10⁻⁶ cm/s
- tR [12]: 13.5 min
- Papp A→B (in vitro [13]; Caco-2, Papp A-B + Elacridar avg): 6.1 ×10⁻⁶ cm/s
- Papp A→B (in vitro [13]; Caco-2, Papp A-B avg): 2.01 ×10⁻⁶ cm/s
- Papp B→A (in vitro [13]; Caco-2, Papp B-A + Elacridar avg): 9.5 ×10⁻⁶ cm/s
- Papp B→A (in vitro [13]; Caco-2, Papp B-A avg): 37.6 ×10⁻⁶ cm/s
- Papp A-B avg (second block) (Caco-2 cells): 2.01e-06 cm/s
- Papp A-B set 1 (second block) (Caco-2 cells): 2.06e-06 cm/s
- Papp A-B set 2 (second block) (Caco-2 cells): 1.96e-06 cm/s
- Papp B-A avg (second block) (Caco-2 cells): 3.76e-05 cm/s
- Papp B-A set 1 (second block) (Caco-2 cells): 3.86e-05 cm/s
- Papp B-A set 2 (second block) (Caco-2 cells): 3.67e-05 cm/s
- Half lives (human liver microsomes): 24.8
- Half lives (SGF) set1 (pepsin [14]): 259 min
- half-life (in vitro [15]): 1560 min
- remaining at 1 h (in vitro [15]): 90%
- remaining at 3 h (in vitro [15]): 82%
- remaining at 5 h (in vitro [15]): 84%
- remaining at 7 h (in vitro [15]): 76%
- remaining at 9 h (in vitro [15]): 67%
- remaining at 12 h (in vitro [15]): 61%
- remaining at 24 h (in vitro [15]): 50%
- remaining at 36 h (in vitro [15]): 43%
- remaining at 48 h (in vitro [15]): 32%
- remaining at 60 h (in vitro [15]): 25%
- remaining at 72 h (in vitro [15]): 12%
- Half-life of D-Leu1 amide proton (HDX) ([16]; HDX by NMR, 20% D2O in DMSO-d6): 46 min
- Half-life of Leu2 amide proton (HDX) ([16]; HDX by NMR, 20% D2O in DMSO-d6): 36 min
- Half-life of Leu3 amide proton (HDX) ([16]; HDX by NMR, 20% D2O in DMSO-d6): 191 min
- Half-life of Leu6 amide proton (HDX) ([16]; HDX by NMR, 20% D2O in DMSO-d6): 650 min
- Half-life of Tyr5 amide proton (HDX) ([16]; HDX by NMR, 20% D2O in DMSO-d6): 35 min
Compound: CC(C)C[C@@H]1NC(=O)[C@@H](CC(C)C)NC(=O)[C@H](CC(C)C)NC(=S)[C@H](Cc2ccc(O)cc2)NC(=O)[C@H]2CCCN2C(=O)[C@H](CC(C)C)NC1=O [10e] (cyclo(LL[dP][X1][dL]))

- logD heptane ethylene glycol [5]: -0.94
- logD (physchem): -0.84
- fraction unbound (in vitro [10]): 0.11
- IC50 (SSTR2; read-out: IC50 sstr2): 20.3 ± 11.9 nM
- Papp ([11]; Pe): 2.29 ×10⁻⁶ cm/s
- t1/2 in human blood plasma: 42 h
- half-life (in vitro [15]): 2520 min
- IC50 (SSTR5): > 10000 nM
- level at 0.5 h (in vivo [17]; Sprague Dawley): 92 ng/mL
- level at 1 h (in vivo [17]; Sprague Dawley): 77 ng/mL
- half-life (in vivo [17]): 66 ± 24 min
Compound: C[C@@H](O)[C@@H]1NC(=O)[C@H](CCCCN)NC(=O)[C@@H](Cc2c[nH]c3ccccc23)NC(=O)[C@H](Cc2ccccc2)NC(=O)[C@@H]2CCCN2C(=S)[C@H](Cc2ccccc2)NC1=O [13d] (cyclo(F[dW]KT[X9]))
